Tests used:
WiDr (NTR+ve) = test: Cell proliferation (sulphorhodamine B) IC50, NTR-transfected WiDr human colon cells; type: cell-based; settings: for WiDr WT:NTR IC50 Ratio: 4 h, sensitivity ratio for NTR expression; for IC50: WiDr, 4 h drug exposure, growth 5 further days
A549 (P450R+ve) = test: Cell proliferation (sulphorhodamine B) IC50, P450R-transfected A549 human lung cells, anoxia vs 20% O2; type: cell-based; settings: for A549 (P450R+ve) 20% O2/anoxia IC50 Ratio: 4 h, sensitivity ratio for hypoxia; for IC50: A549, 4 h drug exposure under 0% oxygen
in vivo = settings: CD-1 nude, mouse, ip

Row | SMILES | WiDr WT:NTR IC50 Ratio (WiDr (NTR+ve)) | IC50 (WiDr (NTR+ve)) | A549 (P450R+ve) 20% O2/anoxia IC50 Ratio (A549 (P450R+ve)) | IC50 (A549 (P450R+ve)) | MTD (in vivo)
1 | O=C(NCCCO)c1cc(N(CCCl)CCCl)c([N+](=O)[O-])cc1[N+](=O)[O-] [IIa-3, N-(3-Hydroxypropyl)-5-[bis(2-Chloroethyl)Amino]-2,4-Dinitrobenzamide] | 36 | 47 µM | 23 | 54 µM | –
2 | O=C(NCCO)c1cc(N(CCBr)CCBr)c([N+](=O)[O-])cc1[N+](=O)[O-] [IIa-7, N-(2-Hydroxyethyl)-5-[Bis(2-Bromoethyl)Amino]-2,4-Dinitrobenzamide] | 99 | 1.5 µM | 49 | 6.7 µM | –
3 | O=C(NCCCO)c1cc(N(CCBr)CCBr)c([N+](=O)[O-])cc1[N+](=O)[O-] [IIa-8, N-(3-Hydroxypropyl)-5-[Bis(2-Bromoethyl)Amino]-2,4-Dinitrobenzamide] | 224 | 1.6 µM | 6.6 | 23 µM | –
4 | O=C(NCCCCCO)c1cc(N(CCBr)CCBr)c([N+](=O)[O-])cc1[N+](=O)[O-] [IIa-10, N-(5-Hydroxypentyl)-5-[Bis(2-Bromoethyl)Amino]-2,4-Dinitrobenzamide] | 22 | 10 µM | – | – | –
5 | O=C(NCCCCCCO)c1cc(N(CCBr)CCBr)c([N+](=O)[O-])cc1[N+](=O)[O-] [IIa-11, N-(6-Hydroxyhexyl)-5-[Bis(2-Bromoethyl)Amino]-2,4-Dinitrobenzamide] | 9 | 11 µM | – | – | –
6 | O=C(NCCO)c1cc(N(CCI)CCI)c([N+](=O)[O-])cc1[N+](=O)[O-] [IIa-14, 5-[Bis(2-Iodoethyl)Amino]-N-(2-Hydroxyethyl)-2,4-Dinitrobenzamide] | 49 | 2.9 µM | 4.5 | 13 µM | –
7 | O=C(NCCCCO)c1cc([N+](=O)[O-])cc([N+](=O)[O-])c1N(CCCl)CCCl [IIb-4, 2-[Bis(2-Chloroethyl)Amino]-N-(4-Hydroxybutyl)-3,5-Dinitrobenzamide] | 18 | 14 µM | – | – | –
8 | O=C(NCCCCCO)c1cc([N+](=O)[O-])cc([N+](=O)[O-])c1N(CCCl)CCCl [IIb-5, 2-[Bis(2-Chloroethyl)Amino]-N-(5-Hydroxypentyl)-3,5-Dinitrobenzamide] | 19 | 13 µM | – | – | –
9 | O=C(NCCCCO)c1cc([N+](=O)[O-])cc([N+](=O)[O-])c1N(CCBr)CCBr [IIb-9, 2-[Bis(2-Bromoethyl)Amino]-N-(4-Hydroxybutyl)-3,5-Dinitrobenzamide] | 5 | 0.9 µM | 20 | 1.4 µM | –
10 | O=C(NCCCCCO)c1cc([N+](=O)[O-])cc([N+](=O)[O-])c1N(CCBr)CCBr [IIb-10, 2-[Bis(2-Bromoethyl)Amino]-N-(5-Hydroxypentyl)-3,5-Dinitrobenzamide] | 2 | 0.9 µM | 11 | 2.3 µM | –
11 | O=C(NCCCCCCO)c1cc([N+](=O)[O-])cc([N+](=O)[O-])c1N(CCBr)CCBr [IIb-11, 2-[Bis(2-Bromoethyl)Amino]-N-(6-Hydroxyhexyl)-3,5-Dinitrobenzamide] | 2 | 1 µM | 4.5 | 6.6 µM | –
12 | O=C(NCCO)c1c([N+](=O)[O-])ccc(N(CCBr)CCBr)c1[N+](=O)[O-] [IIc-7, 3-[Bis(2-Bromoethyl)Amino]-N-(2-Hydroxyethyl)-2,6-Dinitrobenzamide] | 46 | 10 µM | 40 | 3.9 µM | –
13 | O=C(NCCCO)c1c([N+](=O)[O-])ccc(N(CCBr)CCBr)c1[N+](=O)[O-] [IIc-8, 3-[Bis(2-Bromoethyl)Amino]-N-(3-Hydroxypropyl)-2,6-Dinitrobenzamide] | 70 | 5 µM | 24 | 6.6 µM | –
14 | O=C(NCCCCO)c1c([N+](=O)[O-])ccc(N(CCBr)CCBr)c1[N+](=O)[O-] [IIc-9, 3-[Bis(2-Bromoethyl)Amino]-N-(4-Hydroxybutyl)-2,6-Dinitrobenzamide] | 6 | 31 µM | 21 | 7.3 µM | –
15 | O=C(NCCCOP(=O)(O)O)c1cc(N(CCBr)CCBr)c([N+](=O)[O-])cc1[N+](=O)[O-] [Ia-8P, 3-[[5-[Bis(2-Bromoethyl)Amino]-2,4-Dinitrobenzoyl]Amino]Propyl Dihydrogen Phosphate] | – | – | – | – | 1000 µmol/kg
16 | O=C(NCCOP(=O)(O)O)c1cc([N+](=O)[O-])cc([N+](=O)[O-])c1N(CCCl)CCCl [Ib-2P, 2-[[2-[Bis(2-Chloroethyl)Amino]-3,5-Dinitrobenzoyl]Amino]Ethyl Dihydrogen Phosphate] | – | – | – | – | 237 µmol/kg
17 | O=C(NCCCOP(=O)(O)O)c1c([N+](=O)[O-])ccc(N(CCBr)CCBr)c1[N+](=O)[O-] [Ic-8P, 3-({3-[Bis(2-Bromoethyl)Amino]-2,6-Dinitrobenzoyl}Amino)Propyl Dihydrogen Phosphate] | – | – | – | – | 562 µmol/kg

From patent US7629332B2, “Nitrophenyl mustard and nitrophenylaziridine alcohols and their corresponding phosphates and their use as targeted cytotoxic agents” (Auckland Uniservices Limited, priority 2003, dated 2009)
